The source made the active and inactive calls. Rule as the data show it: actives have a measured IC50 and inactives only a lower limit.
target: Envelope glycoprotein gp160 (Human immunodeficiency virus 1, UniProt Q6QLK5); assay: inhibitors of HIV fusion peptide binding, primary screen, biochemical, uHTS, fluorescence dequenching (AID 1986)
Sequence (Q6QLK5 whole entry, the tested form may be a part): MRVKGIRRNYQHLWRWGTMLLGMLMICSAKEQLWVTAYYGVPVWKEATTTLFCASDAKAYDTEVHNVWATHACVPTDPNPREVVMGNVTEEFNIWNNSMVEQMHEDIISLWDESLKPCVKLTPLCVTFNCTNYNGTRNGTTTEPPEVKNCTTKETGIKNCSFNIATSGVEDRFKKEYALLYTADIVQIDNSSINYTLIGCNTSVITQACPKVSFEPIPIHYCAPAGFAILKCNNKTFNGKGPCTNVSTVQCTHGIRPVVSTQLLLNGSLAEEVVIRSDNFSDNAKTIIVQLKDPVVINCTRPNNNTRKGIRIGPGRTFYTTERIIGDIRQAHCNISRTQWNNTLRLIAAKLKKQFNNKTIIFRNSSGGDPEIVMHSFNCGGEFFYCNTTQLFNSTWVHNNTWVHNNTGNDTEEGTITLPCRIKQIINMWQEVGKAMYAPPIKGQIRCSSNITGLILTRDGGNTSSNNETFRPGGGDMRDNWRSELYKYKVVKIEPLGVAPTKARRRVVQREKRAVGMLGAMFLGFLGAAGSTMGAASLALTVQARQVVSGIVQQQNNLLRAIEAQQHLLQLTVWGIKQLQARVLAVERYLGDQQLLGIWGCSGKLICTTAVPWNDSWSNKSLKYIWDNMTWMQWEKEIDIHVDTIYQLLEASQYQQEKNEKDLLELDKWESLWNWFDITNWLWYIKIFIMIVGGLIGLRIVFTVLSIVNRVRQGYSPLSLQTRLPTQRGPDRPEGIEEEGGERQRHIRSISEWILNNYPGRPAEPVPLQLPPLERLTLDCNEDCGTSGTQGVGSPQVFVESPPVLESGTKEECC

SMILES	IC50
O=C(NC(=S)Nc1ccccc1C(=O)O)c1ccc(-c2ccc(Br)cc2)o1	18.5 µM (active)
O=C1NN(c2ccc(Cl)c(Cl)c2)C(=O)/C1=C/c1cccc(OC(=O)c2cccs2)c1	11.8 µM (active)
O=C(O)c1ccc(NS(=O)(=O)c2ccc3c(c2)C2C=CCC2C(c2ccccc2F)N3)cc1 (centres undefined)	17.7 µM (active)
O=C(CCCN1C(=O)/C(=C/c2cccs2)SC1=S)Nc1ccc(O)c(C(=O)O)c1	24.1 µM (active)
